In US11986482B2, “Method of promoting antitumor or anti-cancer immunity” (City University of Hong Kong, priority 2021, dated 2024):
Entries after “also recorded” stand apart in the source; their conditions may differ.

Key:
PD-L1 [1] = experiment: PD-L1 internalization assay (surface anti-PD-L1 antibody labelling, Rab5 colocalization) in HeLa cells; type: cell-based; conditions: HeLa cells pretreated 3 h; Pitstop2 30 uM, Filipin III 5 mg/mL
Description: Without intending to be limited by theory, it is believed that the endosomal trafficking of PD-L1, a type I membrane protein, remains poorly studied thus far. In the fixed HeLa cells stained with anti-PD-L1 antibody, HeLa cells are plated on coverslips in 24-well plates and fixed after 24 h. Cells are then co-stained with antibodies against PD-L1 and Rab5, LAMP1, CD63, Rab27A, Rab11. […] Thus, inventors speculate that PD-L1 at the cell surface may be subjected to an active endosomal trafficking process. To monitor the PD-L1's endosomal trafficking process, inventors label the PD-L1 at the cell surface in the live cells with an anti-PD-L1 antibody on ice for 1 h. They then incubate the cells with the warm medium at 37° C. for the indicated times to initiate the internalization of the PD-L1 antibody complex, followed by the immunostaining of RAB5, EEA1, LAMP1, or RAB11. […] In addition, HeLa cells are pretreated with Fillilin III (5 mg/mL) or Pistop2 (30 uM) for 3 h, then stained with the anti-PD-L1 antibody on ice for 1 h. At the indicated times after being incubated with a warm medium at 37° C., the cells are fixed and stained with an anti-Rab5 antibody. […] Furthermore, Rab5-knockout HeLa cells are transfected with CD63-mcherry and stained with the anti-PD-L1 antibody on ice for 1 h. After being incubated for 1.5 h in a warm medium at 37° C., the cells are fixed and imaged.

PD-L1 [2] = experiment: Plasma membrane PD-L1 level in 4T1 cells (flow cytometry); type: cell-based, mouse; conditions: 4T1 cells, GW4869 10 μM with 6J1 1 μM
Description: (§1) The current PD-L1 and PD1 therapies apply PD-L1 or PD1 monoclonal antibodies to block the PD-L1/PD1 signaling, which results in cytotoxic T cells recognizing and killing the tumor cells. […] First, flow cytometry-based quantification of plasma membrane levels of PD-L1 in 4T1 cells treated with or without 6J1 (1 μM) for 24 h. 4T1 cells are treated with or without 6J1 (1 μM) for 24 h. The supernatant is collected, and the concentration of extracellular vesicle is determined using a Nanosight nanoparticle analyzer in FIG. 8b. The exosomes are also collected and subjected to western blot analysis of the EVs marker and PD-L1 in FIG. 8c.
Therefore, it is possible that the increased exosomal PD-L1 secretion induced by 6J1 may still suppress the tumor-infiltrating T cell cytotoxicity in vivo, even though 6J1 reduces the cell surface expression level of PD-L1 on the tumor cells. To evaluate the role of exosomal PD-L1 in the tumor microenvironment and tumor progression in mice, inventors knock out Rab27a in 4T1 cells to inhibit the secretion of exosomes. 4T1-shNC or 4T1-shRab27A cells are treated with or without 6J1 (1 μM). The supernatant is collected, and the concentration of extracellular vesicle is determined using a Nanosight nanoparticle analyzer. […] Inventors analyze the plasma membrane levels of PD-L1 in 4T1-shNC or 4T1-shRab27A cells treated with or without 6J1 (1 μM). […] Next, control or Rab27a-knockout 4T1 cells are orthotopically transplanted into syngeneic fat pads of female Balb/c. The mice are randomly divided (n=5 per group) and treated with either buffer or 6J1 (30 mg/kg, daily) via oral gavage. […] Inventors also perform the immunostaining of CD8 and Granzyme B in the tumor sections. […] Since enhanced antitumor immunity leads to increased apoptosis in tumors, inventors assess the levels of cleaved caspase3 (CCA3), one of the markers of apoptosis, in tumor sections as well.
Finally, inventors assess the combinatory effects of 6J1 with GW4869, an exosome secretion inhibitor, in the aforementioned orthotopic mammary carcinoma mouse models. […]

4T1 cells = experiment: Extracellular vesicle concentration, Nanosight nanoparticle analyzer, 4T1 cells; type: cell-based, mouse; conditions: 4T1 cells, GW4869 10 μM with 6J1 1 μM
Description: as §1
To assess whether the in vivo antitumor growth effect of 6J1 is related to its effect on PD-L1 in 4T1 cells, inventors knock out PD-L1 via CRISPR/Cas9 in 4T1 cells (FIG. 10a). 4T1-NC or 4T1-PD-L1 knockout cells are treated with or without 6J1 (1 μM) for 24 h. The supernatant is collected, and the concentration of extracellular vesicle is determined using a Nanosight nanoparticle analyzer. The exosomes are also collected and subjected to western blot analysis of the EVs marker and PD-L1. […] Inventors then transplant control or PD-L1-knockout 4T1 cells into the fat pad of syngeneic female Balb/c mice. The mice are randomly divided (n=5 per group) and treated with either buffer or 6J1 (30 mg/kg, daily) via oral gavage.
Therefore, it is possible that the increased exosomal PD-L1 secretion induced by 6J1 may still suppress the tumor-infiltrating T cell cytotoxicity in vivo, even though 6J1 reduces the cell surface expression level of PD-L1 on the tumor cells. To evaluate the role of exosomal PD-L1 in the tumor microenvironment and tumor progression in mice, inventors knock out Rab27a in 4T1 cells to inhibit the secretion of exosomes. 4T1-shNC or 4T1-shRab27A cells are treated with or without 6J1 (1 μM). The supernatant is collected, and the concentration of extracellular vesicle is determined using a Nanosight nanoparticle analyzer. […] Inventors analyze the plasma membrane levels of PD-L1 in 4T1-shNC or 4T1-shRab27A cells treated with or without 6J1 (1 μM). […]

PD-L1 [3] = experiment: Western blot of PD-L1 in total cell lysates and exosomes of HeLa cells; type: cell-based; conditions: HeLa cells, 48 h, Bafilomycin A1 10 nM, Torin 1 100 nM; for exosomal PD-L1 level: ionomycin 1 μM, 6J1 1 μM
Description: PD-L1 has been previously shown to be secreted outside the cell through exosomes. HeLa cells are plated on coverslips in 24-well plates and stained with the anti-PD-L1 antibody on ice for 1 h. At the indicated times after being incubated at a warm medium at 37° C., cells are fixed and stained with antibodies against CD63 or Rab27a. […] Cells are treated with or without ionomycin (1 μM) for 48 h. The supernatant is collected and subjected to western blot analysis. […] Since the amphisome, which is formed by the fusion of the autophagosome with the MVB/late endosome, has been implicated in extracellular vesicles secretion, and PD-L1 is found to be associated with LC3B during PD-L1 trafficking (FIG. 2a), inventors examine whether the autophagosome formation is involved in exosomal PD-L1 secretion. Thus, inventors knock out the expression of Rab27A, LC3B or ATG4B in HeLa cells and collect their supernatant respectively for western blot analysis.
Furthermore, HeLa cells are treated with or without Bafilomycin A1 (10 nM), or Torin 1 (100 nM) for 48 h. The cell lysates and supernatant are collected for western blot analysis. […] In contrast, Torin1, an autophagy activator, has little effect on total and exosomal PD-L1 levels (FIG. 2g). […] On the other hand, blockage on the fusion between lysosomes and late endosomes or autophagosomes may induce PD-L1 secretion via exosomes.
It has previously been shown that interfering with endosomal trafficking promotes exosome secretion. Moreover, PD-L1 has been reported to be enriched in exosomes and secreted outside the cell. Thus, inventors speculate that 6J1 may induce the secretion of the PD-L1 trapped in the endosomal compartments via exosomes. To determine whether 6J1 may induce the secretion of PD-L1 via exosomes, HeLa cells are treated with or without 6J1 (1 μM) for 24 h. The supernatant is collected. Inventors purify the exosomes from the supernatant of HeLa cells by sequential centrifugation. The concentration of extracellular vesicle is determined using a Nanosight nanoparticle analyzer. And HeLa cells are treated with or without 6J1 (1 μM) for 48 h. The cell and supernatant are collected for Western Blot analysis. […] Moreover, the activity of Rab27a in HeLa cells treated with or without 6J1 (1 μM) is examined with a GST-SHD pulldown assay.
Moreover, ATG5- or LC3-knockout HeLa cells are treated with or without 6J1 (1 μM) for 24 h. The supernatant is collected, and the concentration of the extracellular vesicle is determined using a Nanosight nanoparticle analyzer. The exosomes are also collected and subjected to western blot analysis of the EVs marker and PD-L1 in FIG. 7a. The live cells are also labeled with an anti-PD-L1 antibody in FIG. 7b and subjected to flow cytometry analysis in FIG. 7c. […] In addition, inventors assess whether other autophagy-related genes, e.g., ATG4B, ATG7, Beclin1, and Vps34 are involved in 6J1-mediated exosomal PD-L1 secretion. ATG4B-, ATG7-, Beclin1-, or VPS34-knockout HeLa cells are treated with or without 6J1 (1 μM) for 24 h. The supernatant is collected, and the concentration of extracellular vesicle is determined using a Nanosight nanoparticle analyzer. The exosomes are also collected and subjected to western blot analysis of the EVs marker and PD-L1 in FIG. 7d. The live cells are also labeled with an anti-PD-L1 antibody and subjected to flow cytometry analysis in FIG. 7e.

Compound	internalization of PD-L1 (PD-L1 [1])	total PD-L1 level in cells (PD-L1 [3])	exosomal PD-L1 level (PD-L1 [3])	also measured
CCCCC[C@@H](O)[C@H]1C(=O)O[C@H](C)[C@@H](O)/C=C/C=C/C=C/C=C/C=C(\C)[C@@H](O)C[C@H](O)C[C@H](O)C[C@H](O)C[C@H](O)C[C@H](O)C[C@@H]1O [Filipin III]	does not affect the internalization of PD-L1	–	–	–
O=C(C=Cc1ccc(C=CC(=O)Nc2ccc(C3=NCCN3)cc2)cc1)Nc1ccc(C2=NCCN2)cc1 [GW4869, reference compound]	–	–	–	effect of GW4869 on 6J1-mediated reduction of cell surface PD-L1 (PD-L1 [2]): does not impair 6J1-mediated reduction of cell surface PD-L1; effect of GW4869 on 6J1-induced exosome secretion (4T1 cells): inhibits exosome secretion of 4T1 cells induced by 6J1
O=C1NC(=NS(=O)(=O)c2cccc3ccccc23)S/C1=C\c1ccc(Br)cc1 [Pitstop2]	blocks the internalization of PD-L1	–	–	–
CCC(=O)N1CCN(c2ccc(-n3c(=O)ccc4cnc5ccc(-c6cnc7ccccc7c6)cc5c43)cc2C(F)(F)F)CC1 [Torin1]	–	little effect	little effect	–
CO/C1=C\C(C)=C\[C@@H](C)[C@@H](O)[C@@H](C)C/C(C)=C/C=C/[C@H](OC)[C@@H]([C@@H](C)[C@@H](O)[C@H](C)[C@@]2(O)C[C@@H](O)[C@H](C)[C@@H](C(C)C)O2)OC1=O [bafilomycin A1]	–	markedly increases	markedly increases	–
C[C@H](CCC(=O)O)C[C@H](C)C[C@H](C)C(=O)/C=C(\O)[C@H](C)C[C@H](C)C/C=C/[C@@H](C)[C@@H](O)[C@@H](C)[C@@H](O)C[C@@H]1CC[C@@](C)([C@H]2CC[C@@](C)([C@@H](C)O)O2)O1 [ionomycin]	–	–	markedly increases the exosomal PD-L1 level; also recorded: markedly increased exosomal PD-L1 level	–
